# Key:
# MSTO211H and NCI-H2052 = assay: ATPlite vitality assay, extract in association with pemetrexed, MPM lines; format: cell-based, human; details: MPM cells, 72 h
# Procedure: Cell lines MSTO211H and NCI-H2052 were used to evaluate the effects of the association of extract of Cynara scolymus+anti-tumour drug.
# (§1) The assay shown in FIG. 10 was performed using ATPlite™ assay (Perkin Elmer) in accordance with the producer's instructions.
# (§2) A solution of water for injectable solutions and ethanol at a concentration of 1:1 was used in the same volumes used for the treatments.
# (§3) pemetrexed (Alimta, Lilly) diluted in accordance with the producer's instructions.
# (§4) The concentrations of the assayed compound are plotted on the abscissa, whereas the cell vitality expressed in percentage is plotted on the ordinate.
# untransformed HMC cells = assay: ATPlite vitality assay, extract in association with pemetrexed, HMC; format: cell-based, human; details: non-tumour HMC cells
# Procedure: as §1, §2, §3, §4
# STAT3 [1] = biological target: T1, STAT3 (Homo sapiens, UniProt P40763); assay: EMSA of STAT3 binding to DNA in KARPAS cells; format: cell-based; parameters: endogenous in cells; details: read-out: EC50 inhibition of the ability of STAT3 to bind to DNA
# [2] = tested on: human prostate tumour cell line DU145; assay: WST-1 vitality assay in association with chemotherapeutic agents; format: cell-based
# Procedure: (§5) Cytotoxicity was assayed using the WST assay (WSTs=water soluble tetrazolium salts), and utilises the ability of mitochondrial dehydrogenases to separate the tetrazole ring from the yellow-coloured WST molecule (tetrazolium salt) to give an orange formazan salt. The amount of formazan produced following the treatment of the cells with the substances being tested is measured using spectrophotometry and is proportional to the number of living cells. WST-1 and in particular WST-8 (2-(2-methoxy-4-nitrophenyl)-3-(4-nitrophenyl)-5-(2,4-disulfophenyl)-2H-tetrazolium) are advantageous with respect to MTT because they reduce outside the cells, in combination with PMS as electron mediator, to produce water-soluble formazan.
# The assays were carried out in parallel with variable doses of cynaropicrin in place of the extract to compare the efficacy of the extract and that of cynaropicrin.
# STAT3 [3] = biological target: T1, STAT3; assay: EMSA of STAT3 binding to DNA in DU-145 cells; format: cell-based; parameters: The cell line DU145 expresses pStat3 in a constitutive manner; endogenous in cells; host or cells: DU-145 (human prostate carcinoma, ATCC HTB-81); details: read-out: EC50 inhibition of the ability of STAT3 to bind to DNA
# [4] = tested on: confluent prostatic adenocarcinoma cell line DU-145; assay: WST-1 cell vitality assay, confluent DU-145; format: cell-based, human
# Procedure: as §5
# 6.2 WST-1 assay on cell line DU145 at 24 and 48 hours with 0-100-200-300-400-500-600 μg/ml of extract of Cynara scolymus (cynaropicrin=1.361%), which inhibits, in a time-dependent and dose-dependent manner, the vitality of the DU-145 cells.
# 6.3 WST-1 assay on cell line DU145 at 24 and 48 hours with cynaropicrin 0-10-20-30-40-50-60 μM inhibits, in a dose-dependent and time-dependent manner, the vitality of DU-145 cells.
# STAT3 [5] = biological target: T1, STAT3; assay: Western Blot of STAT3 phosphorylation in DU-145 cells; format: cell-based; parameters: The cell line DU145 expresses pStat3 in a constitutive manner; endogenous in cells; host or cells: DU-145 (human prostate carcinoma, ATCC HTB-81); details: read-out: EC50 inhibition of the phosphorylation of STAT3
# Procedure: (§6) The cells were lysed in ice for 30 min in lysis buffer NP40 (50 mM Tris-HCl pH 7.4, 150 mM NaCl, 1% NP-40, 1 mM EGTA, 1 mM EDTA) complemented with inhibitors of protease and phosphatase (5 mM PMSF, 3 mM NaF, 1 mM DTT, 1 mM NaVO4). Equal amounts of total extracts of protein (30 μg) were broken down by means of denaturing electrophoresis (SDS-PAGE) in 8% polyacrylamide gel and transferred for 2 hours on nitrocellulose membrane. The membranes were blocked with a 5% solution of milk dissolved in TBS-Tween_20 0.05% for 1 hour and incubated with the specific primary antibodies. The following primary antibodies were used: anti-beta actin (A-2228, SIGMA), anti-pSTAT3 (Tyr-705) (sc8059, Santa Cruz) and anti-STAT3 (sc7179, Santa Cruz). The secondary antibodies were peroxidase-conjugated (Santa Cruz), and ECL reagents (Amersham, GE Healthcare. Piscataway, N.J., USA) were used for the chemiluminescence.
# (§7) 2. The Extract of Cynara scolymus and Cynaropicrin Inhibit the Activation of STAT3 in DU-145 Cells and in KARPAS Cells:
# (§8) 200 μg/ml of extract that contains 0.181% of cynaropricrin contain 1.2 μM of cynaropricrin.
# STAT3 [6] = biological target: T1, STAT3; assay: Western Blot of STAT3 phosphorylation in KARPAS cells; format: cell-based; parameters: The cell line DU145 expresses pStat3 in a constitutive manner; endogenous in cells; host or cells: DU-145 (human prostate carcinoma, ATCC HTB-81); details: read-out: EC50 inhibition of the phosphorylation of STAT3
# Procedure: as §6, §7, §8
# STAT3 [7] = assay: STAT3 phosphorylation after pre-treatment with glutathione ethylene ester; format: cell-based
# GSH = assay: Intracellular analyses of GSH; format: cell-based; details: 12.5, 25, 50 μM
# Procedure: The intracellular concentration of GSH was evaluated by means of a colorimetric method. The cell extract, deproteinised by means of 10% trichloroacetic acid, was treated with dithio nitrobenzene (DTNB), and the quantity of TNB, which is released following the reaction with GSH, was evaluated by analysing the absorbance at 412 nm.
# STAT3 [8] = assay: Glutathionylation of STAT3; format: cell-based; details: 12 microM and 25 μM
# Procedure: STAT3 was immunoprecipitated by incubating the protein cell extract overnight with an anti-STAT3 antibody. The proteins obtained were separated by means of SDS-PAGE in non-reducing conditions and were transferred on PVDF membrane. The glutathionylated STAT3 was recognised using an anti-GSH antibody.
# T1 sequence (P40763 whole entry): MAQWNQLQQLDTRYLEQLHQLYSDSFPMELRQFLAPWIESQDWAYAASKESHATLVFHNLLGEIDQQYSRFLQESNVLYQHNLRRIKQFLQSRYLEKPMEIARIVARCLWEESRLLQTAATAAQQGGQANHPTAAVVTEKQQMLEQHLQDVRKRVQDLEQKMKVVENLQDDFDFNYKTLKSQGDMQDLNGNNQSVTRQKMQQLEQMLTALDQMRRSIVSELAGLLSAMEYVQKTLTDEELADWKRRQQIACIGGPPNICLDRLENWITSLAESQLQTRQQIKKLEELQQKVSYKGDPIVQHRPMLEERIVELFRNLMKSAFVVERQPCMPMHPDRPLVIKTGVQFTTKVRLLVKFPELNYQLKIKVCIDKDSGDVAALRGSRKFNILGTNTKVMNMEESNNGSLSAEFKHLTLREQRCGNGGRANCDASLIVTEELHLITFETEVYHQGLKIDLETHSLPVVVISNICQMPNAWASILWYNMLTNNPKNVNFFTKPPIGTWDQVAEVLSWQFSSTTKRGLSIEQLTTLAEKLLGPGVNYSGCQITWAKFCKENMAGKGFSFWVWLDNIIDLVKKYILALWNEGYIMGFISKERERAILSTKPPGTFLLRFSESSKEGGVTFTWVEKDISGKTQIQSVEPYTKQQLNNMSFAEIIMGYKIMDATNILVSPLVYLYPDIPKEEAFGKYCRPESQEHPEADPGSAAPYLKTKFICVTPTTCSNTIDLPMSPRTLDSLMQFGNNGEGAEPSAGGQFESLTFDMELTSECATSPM
Structure (SMILES),"cell vitality, pemetrexed alone (MSTO211H and NCI-H2052)","cell vitality, pemetrexed alone (untransformed HMC cells)",EC50 (STAT3 [1]),"molarity of cynaropicrin needed to reduce cell vitality below 20%, relative to that present in the artichoke extract ([2]; DU145, with cisplatinum 15 μg/ml)","molarity of cynaropicrin needed to reduce cell vitality below 20%, relative to that present in the artichoke extract ([2]; DU145, with doxorubicin 2 μg/ml)",EC50 (STAT3 [3]),"reduction of vitality ([4]; confluent DU-145, 50 μM for 48 hours)","cell vitality ([4]; confluent DU-145, cynaropicrin 0-70 μM, 24 or 48 hours)",EC50 (STAT3 [5]),EC50 (STAT3 [6]),effect of restoration of GSH on inhibition of STAT3 phosphorylation (STAT3 [7]),intracellular concentration of GSH (GSH),glutathionylation of STAT3 (STAT3 [8])
"Nc1nc2[nH]cc(CCc3ccc(C(=O)N[C@@H](CCC(=O)O)C(=O)O)cc3)c2c(=O)[nH]1 [PMTX, pemetrexed]",cytotoxic for the MPM cells,highly toxic for the non-tumour cells,,,,,,,,,,,
C=C(CO)C(=O)O[C@H]1CC(=C)[C@@H]2C[C@H](O)C(=C)[C@@H]2[C@H]2OC(=O)C(=C)[C@@H]21 [cynaropicrin],,,25 µM,forty times greater,approximately twenty-five times greater,25 µM,approximately 90%,inhibits cell vitality in a time-dependent and dose-dependent manner,25 µM,25 µM,reverses the ability of cynaropicrin to inhibit the phosphorylation of STAT3,time-dependent and dose-dependent reduction of the intracellular concentration of GSH,determines the glutathionylation of STAT3

# — patent publication US10383905B2, “Extract of Cynara ssp. and uses thereof” (ABOCA S.P.A. SOCIETA' AGRICOLA, priority 2013, dated 2019)
